# Assay results published in US20240217968A1, “PHARMACEUTICAL COMPOUND” (DUKE STREET BIO LIMITED, priority 2021, published 2024).
# pIC50: −log10 of the molar value.
# Molecular target: T1, recombinant human Flag-tagged PARP7 (amino acids 456-657) (Homo sapiens, UniProt Q7Z3E1)
# T1 construct: recombinant human Flag-tagged PARP7 (amino acids 456-657)
# T1 sequence (Q7Z3E1 456-657): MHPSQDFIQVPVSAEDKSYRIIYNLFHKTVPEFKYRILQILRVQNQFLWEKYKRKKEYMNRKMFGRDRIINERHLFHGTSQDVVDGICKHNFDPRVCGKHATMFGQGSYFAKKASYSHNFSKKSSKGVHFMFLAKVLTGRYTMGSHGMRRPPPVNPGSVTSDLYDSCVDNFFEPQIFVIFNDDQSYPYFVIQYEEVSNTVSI
# Assay: PARP7 biochemical DELFIA assay (auto-MARylation)
# Settings: DELFIA readout, IC50 class
# Method in brief: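 Flag-PARP7 (456-657), 12.5-37.5 nM stock, captured on anti-FLAG wells, preincubated 30 min with compound, then auto-MARylated with biotin-NAD+ (15 μM stock) in HEPES pH 7.5/NaCl/DTT/BSA/Tween for 2-3 h at room temperature. NAD+ quench; Eu-streptavidin DELFIA read, Ex337/Em620 nm.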
row,Structure (SMILES),pIC50
1,CC(COCCC(=O)N1CCN(c2ncc(OC(F)F)cn2)CC1)n1nc(C(F)(F)F)c2c(=O)[nH]ncc21 (centres unmarked) [Compound 293],≥ 7.00
2,O=C(CCOCCn1nc(C(F)(F)F)c2c(=O)[nH]ncc21)N1CCN(c2ccc(C3COC3)cn2)CC1 [Compound 295],≥ 7.00
3,CCC(COCCC(=O)N1CCN(c2ncc(C(F)(F)F)cn2)CC1)n1nc(C(F)(F)F)c2c(=O)[nH]ncc21 (centres unmarked) [Compound 297],≥ 7.00
4,CCC(COCCC(=O)N1CCN(c2ncc(C(F)(F)F)cn2)CC1)n1nc(C(F)(F)F)c2c(=O)[nH]ncc21 (centres unmarked) [Compound 298],≥ 7.00
5,O=C(CCOCCn1nc(C(F)(F)F)c2c(=O)[nH]ncc21)N1CCN(c2nc(C(F)(F)F)cs2)CC1 [Compound 299],≥ 7.00
6,O=C(CCOCCn1nc(C(F)(F)F)c2c(=O)[nH]ncc21)N1CCN(c2ccc(C3CC3)cn2)CC1 [Compound 300],≥ 7.00
7,O=C1CCc2cnc(N3CCN(C(=O)CCOCCn4nc(C(F)(F)F)c5c(=O)[nH]ncc54)CC3)nc2N1 [Compound 303],≥ 7.00
8,CNC(=O)c1ccc(N2CCN(C(=O)CCOCC(C)n3nc(C(F)(F)F)c4c(=O)[nH]ncc43)CC2)nc1 (centres unmarked) [Compound 304],6.00 to 7.00
9,COc1ccc(N2CCN(C(=O)CCOCC(C)n3nc(C(F)(F)F)c4c(=O)[nH]ncc43)CC2)nc1 (centres unmarked) [Compound 307],≥ 7.00
10,CC1CN(C(=O)CCOCCN2C(=O)CCc3c2cn[nH]c3=O)CCN1c1ncc(C(F)(F)F)cn1 (centres unmarked) [Compound 308],≥ 7.00
11,CC1CN(C(=O)CCOCCN2C(=O)CCc3c2cn[nH]c3=O)CCN1c1ncc(C(F)(F)F)cn1 (centres unmarked) [Compound 309],≥ 7.00
12,CC(COCCC(=O)N1CCN(c2cnc(C#N)cn2)CC1)n1nc(C(F)(F)F)c2c(=O)[nH]ncc21 (centres unmarked) [Compound 312],≥ 7.00
13,CC(COCCC(=O)N1CCN(c2cnc(C#N)cn2)CC1)n1nc(C(F)(F)F)c2c(=O)[nH]ncc21 (centres unmarked) [Compound 313],≥ 7.00
14,O=C(CCOCCn1nc(C(F)(F)F)c2c(=O)[nH]ncc21)N1CCN(c2nc(C(F)(F)F)co2)CC1 [Compound 314],≥ 7.00
15,O=C(CCOCCn1nc(C(F)(F)F)c2c(=O)[nH]ncc21)N1CCN(c2ncc(C3CC3)cn2)CC1 [Compound 315],≥ 7.00
16,"O=C1NCCn2c(CCOCCC(=O)N3CCN(c4ncc(C(F)(F)F)cn4)CC3)cc(C(F)(F)F)c21 [Compound 316, 6-(2-(3-oxo-3-(4-(5-(trifluoromethyl)pyrimidin-2-yl)piperazin-1-yl)propoxy)ethyl)-8-(trifluoromethyl)-3,4-dihydropyrrolo[1,2-a]pyrazin-1(2H)-one]",≥ 7.00
17,"CN(C(=O)COCCn1nc(C(F)(F)F)c2c(=O)[nH]ncc21)C1CCN(c2ncc(C(F)(F)F)cn2)CC1 [Compound 317, N-methyl-2-(2-(4-oxo-3-(trifluoromethyl)-4,5-dihydro-1H-pyrazolo[3,4-d]pyridazin-1-yl)ethoxy)-N-(1-(5-(trifluoromethyl)pyrimidin-2-yl)piperidin-4-yl)acetamide]",≥ 7.00
18,O=C(CCOCCn1nc(C(F)(F)F)c2c(=O)[nH]ncc21)N1CCN(c2noc(C(F)(F)F)n2)CC1 [Compound 320],≥ 7.00
19,CNC(=O)c1cnc(N2CCN(C(=O)CCOCC(C)n3nc(C(F)(F)F)c4c(=O)[nH]ncc43)CC2)nc1 (centres unmarked) [Compound 325],≥ 7.00
20,CC(COCCC(=O)N1CCN(c2ncc(C#N)o2)CC1)n1nc(C(F)(F)F)c2c(=O)[nH]ncc21 (centres unmarked) [Compound 329],≥ 7.00
21,CC(COCCC(=O)N1CCN(c2ncc(C#N)o2)CC1)n1nc(C(F)(F)F)c2c(=O)[nH]ncc21 (centres unmarked) [Compound 330],≥ 7.00

row,Structure (SMILES),pIC50
1,O=C(CCOCCn1nc(C2CC2)c2c(=O)[nH]ncc21)N1CCN(c2ncc(C(F)(F)F)cn2)CC1 [Compound 333],≥ 7.00
2,Cc1ccc(N2CCN(C(=O)CCOCC(C)n3nc(C(F)(F)F)c4c(=O)[nH]ncc43)CC2)nc1 (centres unmarked) [Compound 334],≥ 7.00
3,Cc1nn(C(C)COCCC(=O)N2CCN(c3ncc(Cl)cn3)CC2)c2cn[nH]c(=O)c12 (centres unmarked) [Compound 336],≥ 7.00
4,O=C(CCOCCn1ncc2c(=O)[nH]ncc21)N1CCN(c2ccc(C(F)(F)F)cc2)C(=O)C1 [Compound 337],5.00 to 6.00
5,N#Cc1cn(CCOCCC(=O)N2CCN(c3ncc(C(F)(F)F)cn3)CC2)c2cn[nH]c(=O)c12 [Compound 340],≥ 7.00
6,O=C(CCOCCn1cc(C(F)(F)F)c2c(=O)[nH]ncc21)N1CCN(c2nc(C(F)(F)F)cs2)CC1 [Compound 341],≥ 7.00
7,CC(COCCC(=O)N1CCN(c2ccc(C(F)F)cn2)CC1)n1nc(C(F)(F)F)c2c(=O)[nH]ncc21 (centres unmarked) [Compound 342],≥ 7.00
8,CC(COCCC(=O)N1CCN(c2ccc(C(F)F)cn2)CC1)n1nc(C(F)(F)F)c2c(=O)[nH]ncc21 (centres unmarked) [Compound 343],≥ 7.00
9,CC(COCCC(=O)N1CCN(c2noc(C(F)(F)F)n2)CC1)n1nc(C(F)(F)F)c2c(=O)[nH]ncc21 (centres unmarked) [Compound 345],6.00 to 7.00
10,CC(C)(COCCC(=O)N1CCN(c2ncc(C(F)(F)F)cn2)CC1)n1nc(C(F)(F)F)c2c(=O)[nH]ncc21 [Compound 346],≥ 7.00
11,CC(COCCC(=O)N1CCN(c2ccc(F)cn2)CC1)n1nc(C(F)(F)F)c2c(=O)[nH]ncc21 (centres unmarked) [Compound 347],≥ 7.00
12,CC(COCCC(=O)N1CCN(c2ccc(F)cn2)CC1)n1nc(C(F)(F)F)c2c(=O)[nH]ncc21 (centres unmarked) [Compound 348],≥ 7.00
13,CC(COCCC(=O)N1CCN(c2ncc(F)cc2F)CC1)n1nc(C(F)(F)F)c2c(=O)[nH]ncc21 (centres unmarked) [Compound 349],≥ 7.00
14,CC(COCCC(=O)N1CCN(c2cc(C(F)(F)F)ccn2)CC1)n1nc(C(F)(F)F)c2c(=O)[nH]ncc21 (centres unmarked) [Compound 351],≥ 7.00
15,CC(COCCC(=O)N1CCN(c2cc(C(F)(F)F)ccn2)CC1)n1nc(C(F)(F)F)c2c(=O)[nH]ncc21 (centres unmarked) [Compound 352],≥ 7.00
16,CC(COCCC(=O)N1CCN(c2ncccc2C(F)(F)F)CC1)n1nc(C(F)(F)F)c2c(=O)[nH]ncc21 (centres unmarked) [Compound 353],≥ 7.00
17,CC(COCCC(=O)N1CCN(c2ncccc2C(F)(F)F)CC1)n1nc(C(F)(F)F)c2c(=O)[nH]ncc21 (centres unmarked) [Compound 354],6.00 to 7.00
18,CC(COCCC(=O)N1CCN(c2ncccc2Cl)CC1)n1nc(C(F)(F)F)c2c(=O)[nH]ncc21 (centres unmarked) [Compound 355],≥ 7.00
19,CC1(C)CN(C(=O)CCOCCn2cc(C(F)(F)F)c3c(=O)[nH]ncc32)CCN1c1ncc(C(F)(F)F)cn1 [Compound 358],≥ 7.00
20,O=C(CCOCCn1cc(C(F)(F)F)c2c(=O)[nH]ncc21)N1CCN(c2nc3cc(Cl)ccc3o2)CC1 [Compound 359],≥ 7.00
21,N#Cc1ccc2oc(N3CCN(C(=O)CCOCCn4cc(C(F)(F)F)c5c(=O)[nH]ncc54)CC3)nc2c1 [Compound 361],≥ 7.00

row,Structure (SMILES),pIC50
1,N#Cc1ccc2nc(N3CCN(C(=O)CCOCCn4cc(C(F)(F)F)c5c(=O)[nH]ncc54)CC3)oc2c1 [Compound 362],≥ 7.00
2,O=C(CCOCCn1cc(C(F)(F)F)c2c(=O)[nH]ncc21)N1CCN(c2nc(C(F)(F)F)co2)CC1 [Compound 363],≥ 7.00
3,O=C(CCOCCn1nc(C(F)(F)F)c2c(=O)[nH]ncc21)N1CCN(c2cc(C(F)(F)F)on2)CC1 [Compound 364],≥ 7.00
4,Cn1c(=O)n(CCOCCC(=O)N2CCN(c3ncc(C(F)(F)F)cn3)CC2)c2cn[nH]c(=O)c21 [Compound 367],≥ 7.00
5,CC(COCCC(=O)N1CCN(c2ncccc2F)CC1)n1nc(C(F)(F)F)c2c(=O)[nH]ncc21 (centres unmarked) [Compound 369],≥ 7.00
6,CC1CN(C(=O)CCOCCn2cc(C(F)(F)F)c3c(=O)[nH]ncc32)CCN1c1ncc(C(F)(F)F)cn1 (centres unmarked) [Compound 372],≥ 7.00
7,CC1CN(C(=O)CCOCCn2cc(C(F)(F)F)c3c(=O)[nH]ncc32)CCN1c1ncc(C(F)(F)F)cn1 (centres unmarked) [Compound 373],≥ 7.00
8,CC(COCCC(=O)N1CCN(c2ccc(Cl)cn2)CC1)n1cc(C(F)(F)F)c2c(=O)[nH]ncc21 (centres unmarked) [Compound 374],≥ 7.00
9,CC(COCCC(=O)N1CCN(c2ccc(C(F)(F)F)cn2)CC1)n1cc(C(F)(F)F)c2c(=O)[nH]ncc21 (centres unmarked) [Compound 376],≥ 7.00
10,CC(COCCC(=O)N1CCN(c2ccc(C(F)(F)F)cn2)CC1)n1cc(C(F)(F)F)c2c(=O)[nH]ncc21 (centres unmarked) [Compound 377],≥ 7.00
11,CC1(C)CN(c2ncc(C(F)(F)F)cn2)CCN1C(=O)CCOCCn1cc(C(F)(F)F)c2c(=O)[nH]ncc21 [Compound 378],≥ 7.00
12,O=C(CCOCCn1cc(C(F)(F)F)c2c(=O)[nH]ncc21)N1CCN(c2nc3ccccc3o2)CC1 [Compound 379],≥ 7.00
13,O=C(CCOCCn1cc(C(F)(F)F)c2c(=O)[nH]ncc21)N1CCN(c2nc3ccccc3[nH]2)CC1 [Compound 380],≥ 7.00
14,Cn1c(N2CCN(C(=O)CCOCCn3cc(C(F)(F)F)c4c(=O)[nH]ncc43)CC2)nc2ccccc21 [Compound 381],≥ 7.00
15,O=C(CCOCCn1cc(C(F)(F)F)c2c(=O)[nH]ncc21)N1CCN(c2nc3ccc(Cl)cc3o2)CC1 [Compound 382],≥ 7.00
16,O=C(CCOCCn1nc(C(F)(F)F)c2c(=O)[nH]ncc21)N1CCN(c2ncc(C(F)(F)F)o2)CC1 [Compound 383],≥ 7.00
17,O=C(CCOCCn1cc(C(F)(F)F)c2c(=O)[nH]ncc21)N1CCN(c2ncc(C(F)(F)F)o2)CC1 [Compound 384],≥ 7.00
18,CN(C(=O)COCCn1cc(C(F)(F)F)c2c(=O)[nH]ncc21)C1CCN(c2ncc(C(F)(F)F)cn2)CC1 [Compound 385],≥ 7.00
19,CC(COCCC(=O)N1CCN(c2ncc(C(F)(F)F)cn2)CC1)n1nc(C(F)(F)F)c2c(=O)[nH]ccc21 (centres unmarked) [Compound 388],≥ 7.00
20,CC(COCCC(=O)N1CCN(c2ncc(C(F)(F)F)cn2)CC1)n1nc(C(F)(F)F)c2c(=O)[nH]ccc21 (centres unmarked) [Compound 389],≥ 7.00
